The Ki is the dissociation constant of the complex between target and ligand, obtained from inhibition or displacement.

These results are taken from ChEMBL document CHEMBL1128971, “Pyrazolo[3,4-d]pyrimidines: C4, C6 substitution leads to adenosine A1 receptor selectivity” (Bioorg Med Chem Lett, 1996).

Assay [1] addresses Adenosine receptors; A1 & A2a (Rattus norvegicus) (UniProt P25099+P30543). The experiment in a line: Ratio of binding affinity against adenosine A1 receptor and adenosine A2a receptor. It counts as protein assay.
Assay [2] deals with Adenosine receptor A2a (Rattus norvegicus, UniProt P30543). The experiment in a line: Inhibition of A2a agonist [3H]-CGS- 21680 binding to rat striatal membranes. The class given is cell membranes, Membrane.
Assay [3] has as its target T1, Adenosine receptor A1 (Rattus norvegicus, UniProt P25099).
T1 sequence (P25099 whole entry): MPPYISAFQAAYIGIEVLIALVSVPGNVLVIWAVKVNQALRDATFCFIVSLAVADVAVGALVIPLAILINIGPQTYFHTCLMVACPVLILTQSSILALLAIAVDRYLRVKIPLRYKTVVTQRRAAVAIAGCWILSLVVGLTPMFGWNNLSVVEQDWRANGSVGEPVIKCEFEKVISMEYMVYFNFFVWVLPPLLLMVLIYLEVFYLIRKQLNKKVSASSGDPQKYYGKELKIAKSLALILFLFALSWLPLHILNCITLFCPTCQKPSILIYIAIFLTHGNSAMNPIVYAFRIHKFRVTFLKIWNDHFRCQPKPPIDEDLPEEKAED
The assay can be described thus: Inhibition of A1 agonist (R)-[3H]N 6-(phenylisopropyl) adenosine binding to membranes from rat whole brain.

Sequence of Adenosine receptors; A1 & A2a (Rattus norvegicus) (P30543 whole entry, looked up, one chain of several): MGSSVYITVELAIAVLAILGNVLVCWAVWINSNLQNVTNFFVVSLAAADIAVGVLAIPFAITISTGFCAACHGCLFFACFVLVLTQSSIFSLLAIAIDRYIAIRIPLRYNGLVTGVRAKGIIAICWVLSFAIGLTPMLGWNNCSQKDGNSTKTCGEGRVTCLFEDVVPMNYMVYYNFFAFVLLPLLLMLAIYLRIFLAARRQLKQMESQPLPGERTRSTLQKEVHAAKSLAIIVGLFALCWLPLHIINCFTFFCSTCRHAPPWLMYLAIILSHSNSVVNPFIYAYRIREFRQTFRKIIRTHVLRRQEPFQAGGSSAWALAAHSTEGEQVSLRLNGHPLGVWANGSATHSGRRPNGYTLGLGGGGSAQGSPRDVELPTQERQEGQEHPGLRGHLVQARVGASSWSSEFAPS
Sequence of Adenosine receptor A2a (P30543 whole entry): as the sequence (P30543 whole entry, looked up, one chain of several) above

`CCCCC(Sc1nc(NC)c2cnn(-c3ccccc3)c2n1)C(N)=O` (centres undefined): the Ratio in assay [1] is 331.

Regarding `CCCSc1nc(SC(CC)C(N)=O)nc2c1cnn2-c1ccccc1` (centres undefined), the Ki in assay [2] was over 38500 nM; in assay [3] it was 29.5 nM. In addition, the Ratio in assay [1] amounted to 13000.
